Target: T1, TRPV1 human (Homo sapiens, UniProt Q8NER1)
T1 construct: expressed in transfected cells; host or cells: CHO K1 cells
Experiment: Functional testing on the vanilloid receptor 1 (VR1/TRPV1): FLIPR Ca2+ influx assay, inhibition of capsaicin (CAP) stimulation
Type: cell-based
Settings: @ 1 µM compound; capsaicin (CAP) stimulus; relative to maximum achievable inhibition with 10 µM capsazepine; read-out: TRPV1 human (f) CAP, inhibition (in %)
Description: Furthermore, preference may be given to compounds according to the invention that cause a 50 per cent displacement of capsaicin, which is present at a concentration of 100 nM, in a FLIPR assay with CHO K1 cells which were transfected with the human VR1 gene at a concentration of less than 6,000 nM, preferably less than 5,000 nM, more preferably less that 3,000 nM or less than 1,000 nM and particularly preferably less than 300 nM, most particularly preferably less than 100 nM, even more preferably less than 75 nM, additionally preferably less than 50 nM, most preferably less than 10 nM.
In the process, the Ca^2+ influx is quantified in the FLIPR assay with the aid of a Ca^2+-sensitive dye (type Fluo-4, Molecular Probes Europe BV, Leiden, the Netherlands) in a fluorescent imaging plate reader (FLIPR, Molecular Devices, Sunnyvale, USA), as described hereinafter.
Functional testing carried out on the vanilloid receptor 1 (VRI/TRPV1 receptor) […]
The number of cells in the suspension is set to 3 x 10^5 per mL and 150 µL of this suspension are in each case introduced into a recess in the cell culture plates coated as described hereinbefore. In the incubator the plates are left for two to three days at 37°C, 5 vol.-% of CO2 and 95 % relative humidity. Subsequently, the cells are loaded with 2 µM of Fluo-4 and 0.01 vol.-% of Pluronic F127 (Molecular Probes Europe BV, Leiden, the Netherlands) in HBSS buffer for 30 min at 37°C, washed 3 times with HBSS buffer and after further incubation for 15 min at RT used for Ca^2+ measurement in a FLIPR assay. The Ca^2+-dependent fluorescence is in this case measured before and after the addition of substances (λex = 488 nm, λem = 540 nm). Quantification is carried out by measuring the highest fluorescence intensity (FC, fluorescence counts) over time.
The FLIPR protocol consists of 2 substance additions. First the compounds to be tested (10 µM) are pipetted onto the cells and the Ca^2+ influx is compared with the control (capsaicin 10 µM). This provides the result in % activation based on the Ca^2+ signal after the addition of 10 µM of capsaicin (CP). After 5 min incubation, 100 nM of capsaicin are applied and the Ca^2+ influx is also determined. Desensitising agonists and antagonists lead to suppression of the Ca^2+ influx. The % inhibition is calculated compared to the maximum achievable inhibition with 10 µM of capsazepine.
Triple analyses (n=3) are carried out and repeated in at least 3 independent experiments (N=4). Starting from the percentage displacement caused by different concentrations of the compounds to be tested of general formula I, IC50 inhibitory concentrations which cause a 50% displacement of capsaicin were calculated.
Ki values for the test substances were obtained by conversion by means of the Cheng-Prusoff equation (Cheng, Prusoff; Biochem. Pharmacol. 22, 3099-3108, 1973).

T1 sequence (Q8NER1 whole entry): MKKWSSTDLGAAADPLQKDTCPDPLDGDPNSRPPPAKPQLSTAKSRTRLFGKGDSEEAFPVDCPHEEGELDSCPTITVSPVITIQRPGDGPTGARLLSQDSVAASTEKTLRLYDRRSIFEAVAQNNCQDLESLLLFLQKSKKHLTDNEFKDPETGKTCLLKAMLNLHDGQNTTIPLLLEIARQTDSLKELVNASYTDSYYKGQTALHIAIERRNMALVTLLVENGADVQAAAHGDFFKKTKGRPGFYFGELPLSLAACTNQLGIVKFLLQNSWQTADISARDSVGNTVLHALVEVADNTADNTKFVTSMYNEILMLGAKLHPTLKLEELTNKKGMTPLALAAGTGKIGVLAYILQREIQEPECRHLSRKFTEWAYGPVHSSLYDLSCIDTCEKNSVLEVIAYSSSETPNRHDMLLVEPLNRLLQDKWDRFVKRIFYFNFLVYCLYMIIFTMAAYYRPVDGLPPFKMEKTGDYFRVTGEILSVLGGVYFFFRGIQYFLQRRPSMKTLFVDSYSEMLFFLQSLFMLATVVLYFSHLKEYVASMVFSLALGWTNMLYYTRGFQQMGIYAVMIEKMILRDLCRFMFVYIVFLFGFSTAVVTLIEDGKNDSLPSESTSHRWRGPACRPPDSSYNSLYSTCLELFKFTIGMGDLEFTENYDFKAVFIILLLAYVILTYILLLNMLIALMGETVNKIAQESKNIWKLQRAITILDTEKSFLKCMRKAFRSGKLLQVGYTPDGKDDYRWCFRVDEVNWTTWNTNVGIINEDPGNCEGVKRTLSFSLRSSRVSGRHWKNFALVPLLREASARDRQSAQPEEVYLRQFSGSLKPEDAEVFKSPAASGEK

With `CCNc1nc(C(F)(F)F)ccc1CNC(=O)Cc1cn(C)c2ccc(OC)cc12` [example compound 17, N-((2-(ethylamino)-6-(trifluoromethyl)pyridin-3-yl)methyl)-2-(5-methoxy-1-methyl-1H-indol-3-yl)acetamide] as the compound, how does the inhibition at 1 µM read?
Its inhibition at 1 µM is 0%.

Same assay, conditions: @ 5 µM compound; capsaicin (CAP) stimulus; relative to maximum achievable inhibition with 10 µM capsazepine; read-out: TRPV1 human (f) CAP, inhibition (in %)

With `COCCOCc1nc(C(F)(F)F)ccc1CNC(=O)C(C)c1cn(C)c2ccc(O)cc12` (stereo not drawn) [example compound 15, 2-(5-hydroxy-1-methyl-1H-indol-3-yl)-N-((2-((2-methoxyethoxy)methyl)-6-(trifluoromethyl)pyridin-3-yl)methyl)propanamide] as the compound, how does the inhibition at 5 µM read?
Its inhibition at 5 µM is 15%.

`CCNc1nc(C(F)(F)F)ccc1CNC(=O)Cc1cn(C)c2ccc(OC)cc12` [example compound 17, N-((2-(ethylamino)-6-(trifluoromethyl)pyridin-3-yl)methyl)-2-(5-methoxy-1-methyl-1H-indol-3-yl)acetamide] was tested. Which inhibition at 5 µM did it give?
Its inhibition at 5 µM is 35%.

Same assay, conditions: functional (f) FLIPR assay, capsaicin (CAP) 100 nM; Ki from IC50 by Cheng-Prusoff equation

Which Ki does the source give for `CC1CCN(c2nc(C(F)(F)F)ccc2CNC(=O)C(C)c2cn(C)c3ccc(O)cc23)CC1` (stereo not drawn) [example compound 1, 2-(5-hydroxy-1-methyl-1H-indol-3-yl)-N-((2-(4-methylpiperidin-1-yl)-6-(trifluoromethyl)pyridin-3-yl)methyl)propanamide] here?
The Ki was 0.8 nM.

Which Ki does the source give for `COc1ccc2c(c1)c(CC(=O)NCc1ccc(C(F)(F)F)nc1N1CCC(C)CC1)cn2C` [example compound 2, 2-(5-methoxy-1-methyl-1H-indol-3-yl)-N-((2-(4-methylpiperidin-1-yl)-6-(trifluoromethyl)pyridin-3-yl)methyl)acetamide] here?
Its Ki is 29.6 nM.

How did the Ki turn out when `CC(C(=O)NCc1ccc(C(F)(F)F)nc1C1CCCC1)c1cn(C)c2ccc(O)cc12` (stereo not drawn) [example compound 3, N-((2-cyclopentyl-6-(trifluoromethyl)pyridin-3-yl)methyl)-2-(5-hydroxy-1-methyl-1H-indol-3-yl)propanamide] was run?
Its Ki is 4.8 nM.

`CCNc1nc(C(F)(F)F)ccc1CNC(=O)C(C)c1cn(C)c2ccc(O)cc12` (stereo not drawn) [example compound 4, N-((2-(ethylamino)-6-(trifluoromethyl)pyridin-3-yl)methyl)-2-(5-hydroxy-1-methyl-1H-indol-3-yl)propanamide] was tested. Which Ki did it give?
Its Ki is 44.2 nM.

With `CC(C(=O)NCc1ccc(C(F)(F)F)nc1N1CCCC1)c1cn(C)c2ccc(O)cc12` (stereo not drawn) [example compound 5, 2-(5-hydroxy-1-methyl-1H-indol-3-yl)-N-((2-(pyrrolidin-1-yl)-6-(trifluoromethyl)pyridin-3-yl)methyl)propanamide] as the compound, how does the Ki read?
The Ki was 5 nM.

`CCCCNc1nc(C(F)(F)F)ccc1CNC(=O)C(C)c1cn(C)c2ccc(O)cc12` (stereo not drawn) [example compound 6, N-((2-(butylamino)-6-(trifluoromethyl)pyridin-3-yl)methyl)-2-(5-hydroxy-1-methyl-1H-indol-3-yl)propanamide] was tested. Which Ki did it give?
The Ki was 16.2 nM.

With `CC(C(=O)NCc1ccc(C(F)(F)F)nc1OC1CCOCC1)c1cn(C)c2ccc(O)cc12` (stereo not drawn) [example compound 7, 2-(5-hydroxy-1-methyl-1H-indol-3-yl)-N-((2-((tetrahydro-2H-pyran-4-yl)oxy)-6-(trifluoromethyl)pyridin-3-yl)methyl)propanamide] as the compound, how does the Ki read?
The Ki was 29.1 nM.

With `Cc1cccc(-c2nc(C(F)(F)F)ccc2CNC(=O)C(C)c2cn(C)c3ccc(O)cc23)c1` (stereo not drawn) [example compound 8, 2-(5-hydroxy-1-methyl-1H-indol-3-yl)-N-((2-(m-tolyl)-6-(trifluoromethyl)pyridin-3-yl)methyl)propanamide] as the compound, how does the Ki read?
Its Ki is 1.4 nM.

`CC(C(=O)NCc1ccc(C(F)(F)F)nc1C1CCOCC1)c1cn(C)c2ccc(O)cc12` (stereo not drawn) [example compound 9, 2-(5-hydroxy-1-methyl-1H-indol-3-yl)-N-((2-(tetrahydro-2H-pyran-4-yl)-6-(trifluoromethyl)pyridin-3-yl)methyl)propanamide] was tested. Which Ki did it give?
The Ki was 45.7 nM.

For `CC(C(=O)NCc1ccc(C(F)(F)F)nc1N1CCOCC1)c1cn(C)c2ccc(O)cc12` (stereo not drawn) [example compound 10, 2-(5-hydroxy-1-methyl-1H-indol-3-yl)-N-((2-morpholino-6-(trifluoromethyl)pyridin-3-yl)methyl)propanamide], which Ki is on record?
The Ki was 29.3 nM.

How did the Ki turn out when `CC1CCN(c2nc(C(F)(F)F)ccc2CNC(=O)Cc2cn(C)c3ccc(O)cc23)CC1` [example compound 11, 2-(5-hydroxy-1-methyl-1H-indol-3-yl)-N-((2-(4-methylpiperidin-1-yl)-6-(trifluoromethyl)pyridin-3-yl)methyl)acetamide] was run?
The Ki was 0.3 nM.

With `COCCCc1nc(C(F)(F)F)ccc1CNC(=O)C(C)c1cn(C)c2ccc(O)cc12` (stereo not drawn) [example compound 12, 2-(5-hydroxy-1-methyl-1H-indol-3-yl)-N-((2-(3-methoxypropyl)-6-(trifluoromethyl)pyridin-3-yl)methyl)propanamide] as the compound, how does the Ki read?
The Ki was 81 nM.

For `CC(C(=O)NCc1ccc(C(F)(F)F)nc1N1CCCCC1)c1cn(C)c2ccc(O)cc12` (stereo not drawn) [example compound 13, 2-(5-hydroxy-1-methyl-1H-indol-3-yl)-N-((2-(piperidin-1-yl)-6-(trifluoromethyl)pyridin-3-yl)methyl)propanamide], which Ki is on record?
Its Ki is 3.9 nM.

How did the Ki turn out when `CC1CCN(c2nc(C(F)(F)F)ccc2CNC(=O)C(C)c2cn(C)c3ccccc23)CC1` (stereo not drawn) [example compound 14, 2-(1-methyl-1H-indol-3-yl)-N-((2-(4-methylpiperidin-1-yl)-6-(trifluoromethyl)pyridin-3-yl)methyl)propanamide] was run?
Its Ki is 53 nM.

How did the Ki turn out when `CCNc1nc(C(F)(F)F)ccc1CNC(=O)Cc1cn(C)c2ccc(O)cc12` [example compound 18, N-((2-(ethylamino)-6-(trifluoromethyl)pyridin-3-yl)methyl)-2-(5-hydroxy-1-methyl-1H-indol-3-yl)acetamide] was run?
Its Ki is 8.2 nM.

Which Ki does the source give for `CCCCNc1nc(C(F)(F)F)ccc1CNC(=O)C(C)c1cn(C)c2ccc(OC)cc12` (stereo not drawn) [example compound 19, N-((2-(butylamino)-6-(trifluoromethyl)pyridin-3-yl)methyl)-2-(5-methoxy-1-methyl-1H-indol-3-yl)propanamide] here?
Its Ki is 76.4 nM.

With `Cn1cc(CC(=O)NCc2ccc(C(F)(F)F)nc2N2CCOCC2)c2cc(O)ccc21` [example compound 20, 2-(5-hydroxy-1-methyl-1H-indol-3-yl)-N-((2-morpholino-6-(trifluoromethyl)pyridin-3-yl)methyl)acetamide] as the compound, how does the Ki read?
Its Ki is 16.5 nM.

With `Cn1cc(CC(=O)NCc2ccc(C(F)(F)F)nc2C2CCCC2)c2cc(O)ccc21` [example compound 21, N-((2-cyclopentyl-6-(trifluoromethyl)pyridin-3-yl)methyl)-2-(5-hydroxy-1-methyl-1H-indol-3-yl)acetamide] as the compound, how does the Ki read?
The Ki was 8 nM.

Which Ki does the source give for `CC(C(=O)NCc1ccc(C(F)(F)F)nc1CC1CCCCC1)c1cn(C)c2ccccc12` (stereo not drawn) [example compound 22, N-((2-(cyclohexylmethyl)-6-(trifluoromethyl)pyridin-3-yl)methyl)-2-(1-methyl-1H-indol-3-yl)propanamide] here?
The Ki was 35.9 nM.

For `CC1CCN(c2nc(C(F)(F)F)ccc2CNC(=O)Nc2nc3c([N+](=O)[O-])cccc3s2)CC1` [example compound 24, 1-((2-(4-methylpiperidin-1-yl)-6-(trifluoromethyl)pyridin-3-yl)methyl)-3-(4-nitrobenzo[d]thiazol-2-yl)urea], which Ki is on record?
Its Ki is 31.2 nM.

`CC1CCN(c2nc(C(F)(F)F)ccc2CNC(=O)Nc2nc3ccccc3s2)CC1` [example compound 25, 1-(benzo[d]thiazol-2-yl)-3-((2-(4-methylpiperidin-1-yl)-6-(trifluoromethyl)pyridin-3-yl)methyl)urea] was tested. Which Ki did it give?
Its Ki is 84.9 nM.

Same assay, conditions: ne = did not show any effect in this assay; pAG = partial agonist

For `CCNc1nc(C(F)(F)F)ccc1CNC(=O)C(C)c1cn(C)c2ccc(OC)cc12` (stereo not drawn) [example compound 16, N-((2-(ethylamino)-6-(trifluoromethyl)pyridin-3-yl)methyl)-2-(5-methoxy-1-methyl-1H-indol-3-yl)propanamide], which “TRPV1 human (f) CAP, result in words” value is on record?
Its value is “ne”.

Which “TRPV1 human (f) CAP, result in words” value does the source give for `CC1CCN(c2nc(C(F)(F)F)ccc2CNC(=O)Nc2nc3c(Cl)cccc3s2)CC1` [example compound 23, 1-(4-chlorobenzo[d]thiazol-2-yl)-3-((2-(4-methylpiperidin-1-yl)-6-(trifluoromethyl)pyridin-3-yl)methyl)urea] here?
Its value is “ne”.

Which “TRPV1 human (f) CAP, result in words” value does the source give for `CC1CCN(c2nc(C(F)(F)F)ccc2CNC(=O)Nc2nc3c([N+](=O)[O-])cccc3s2)CC1` [example compound 24, 1-((2-(4-methylpiperidin-1-yl)-6-(trifluoromethyl)pyridin-3-yl)methyl)-3-(4-nitrobenzo[d]thiazol-2-yl)urea] here?
The value was “pAG”.
